Test results: PubChem BioAssay (NCI)
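The compound was tested at five concentrations on cells cultured in 96-well plates, with a 48-hour exposure period. Definition used: TGI = concentration required for complete inhibition of growth.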

How the values were obtained:
Test in all cases: growth of human tumour cells (NCI), 48 h
MDA-MB-231 breast = test system: MDA-MB-231 breast
HOP-92 NSCLC = test system: HOP-92 NSCLC
HCC-2998 colon = test system: HCC-2998 colon
LOX IMVI melanoma = test system: LOX IMVI melanoma
NCI/ADR-RES ovarian = test system: NCI/ADR-RES ovarian
UO-31 renal = test system: UO-31 renal
OVCAR-8 ovarian = test system: OVCAR-8 ovarian
SK-OV-3 ovarian = test system: SK-OV-3 ovarian
HCT-116 colon = test system: HCT-116 colon
SK-MEL-28 melanoma = test system: SK-MEL-28 melanoma
KM12 colon = test system: KM12 colon
HCT-15 colon = test system: HCT-15 colon
786-0 renal = test system: 786-0 renal
NCI-H460 lung = test system: NCI-H460 lung
BT-549 breast = test system: BT-549 breast
PC-3 prostate = test system: PC-3 prostate

CCCC(=O)OC[n+]1ccc(-c2c(COC(=O)NC(C)C)c(COC(=O)NC(C)C)c3n2CCC3)cc1
TGI (MDA-MB-231 breast): > 100 µM
TGI (HOP-92 NSCLC): > 100 µM
TGI (HCC-2998 colon): > 100 µM
TGI (LOX IMVI melanoma): > 100 µM
TGI (NCI/ADR-RES ovarian): > 100 µM
TGI (UO-31 renal): > 100 µM
TGI (OVCAR-8 ovarian): > 100 µM
TGI (SK-OV-3 ovarian): > 100 µM
TGI (HCT-116 colon): > 100 µM
TGI (SK-MEL-28 melanoma): > 100 µM
TGI (KM12 colon): > 100 µM
TGI (HCT-15 colon): > 100 µM
TGI (786-0 renal): > 100 µM
TGI (NCI-H460 lung): > 100 µM
TGI (BT-549 breast): > 100 µM
TGI (PC-3 prostate): > 100 µM

CCNc1nnc(-c2ccccc2Nc2ccccc2-c2nnc(NCC)s2)s1
TGI (MDA-MB-231 breast): 25.7 µM
TGI (HOP-92 NSCLC): 54.2 µM
TGI (HCC-2998 colon): 27.8 µM
TGI (LOX IMVI melanoma): 38.5 µM
TGI (NCI/ADR-RES ovarian): > 100 µM
TGI (UO-31 renal): 21.3 µM
TGI (OVCAR-8 ovarian): > 83.9 µM
TGI (SK-OV-3 ovarian): 31.3 µM
TGI (HCT-116 colon): > 56 µM
TGI (SK-MEL-28 melanoma): 55.2 µM
TGI (KM12 colon): 37.2 µM
TGI (HCT-15 colon): > 45.2 µM
TGI (786-0 renal): 17 µM
TGI (NCI-H460 lung): 31.3 µM
TGI (BT-549 breast): > 79.7 µM
TGI (PC-3 prostate): > 69.4 µM

COc1ccc(-c2nc3c(C(=O)NCCN(C)C)cccc3c3ccccc23)cc1
TGI (MDA-MB-231 breast): 12.2 µM
TGI (HOP-92 NSCLC): 12.3 µM
TGI (HCC-2998 colon): 3.85 µM
TGI (LOX IMVI melanoma): 2.94 µM
TGI (NCI/ADR-RES ovarian): 45.4 µM
TGI (UO-31 renal): 5.16 µM
TGI (OVCAR-8 ovarian): 20.6 µM
TGI (HCT-116 colon): 11.6 µM
TGI (SK-MEL-28 melanoma): 3.71 µM
TGI (KM12 colon): 14.9 µM
TGI (HCT-15 colon): 9.46 µM
TGI (786-0 renal): 6.86 µM
TGI (NCI-H460 lung): 10.9 µM
TGI (BT-549 breast): 22.3 µM
TGI (PC-3 prostate): 13.7 µM

CN(C)c1ccc(/C=C(\NC(=O)c2ccccc2)C(=O)Nc2cccc(C(=O)NCCCO)c2)cc1
TGI (MDA-MB-231 breast): > 100 µM
TGI (HOP-92 NSCLC): > 100 µM
TGI (HCC-2998 colon): > 100 µM
TGI (LOX IMVI melanoma): > 100 µM
TGI (NCI/ADR-RES ovarian): > 100 µM
TGI (UO-31 renal): > 100 µM
TGI (OVCAR-8 ovarian): > 100 µM
TGI (SK-OV-3 ovarian): > 100 µM
TGI (HCT-116 colon): > 100 µM
TGI (SK-MEL-28 melanoma): > 100 µM
TGI (KM12 colon): > 100 µM
TGI (HCT-15 colon): > 100 µM
TGI (786-0 renal): > 100 µM
TGI (NCI-H460 lung): > 100 µM
TGI (BT-549 breast): > 100 µM
TGI (PC-3 prostate): > 100 µM

CC(=O)NC1COC(COC(=O)CCCCCCCCCCNC(=O)c2ccc([N+](=O)[O-])c3c(=O)c4ccccc4[nH]c23)C(O)C1OC(C)C(=O)NC(C(=O)NC(CCC(N)=O)C(=O)OCc1ccccc1)C(C)C (centres undefined)
TGI (MDA-MB-231 breast): > 100 µM
TGI (HOP-92 NSCLC): 31.5 µM
TGI (HCC-2998 colon): 14.3 µM
TGI (LOX IMVI melanoma): 30.1 µM
TGI (NCI/ADR-RES ovarian): > 94.5 µM
TGI (UO-31 renal): 19.1 µM
TGI (OVCAR-8 ovarian): 44.1 µM
TGI (SK-OV-3 ovarian): 78.8 µM
TGI (HCT-116 colon): 42.7 µM
TGI (SK-MEL-28 melanoma): 41.7 µM
TGI (KM12 colon): 11.6 µM
TGI (HCT-15 colon): 50.2 µM
TGI (786-0 renal): > 58.6 µM
TGI (NCI-H460 lung): 39.7 µM
TGI (BT-549 breast): > 83.1 µM
TGI (PC-3 prostate): 26.4 µM

CCOC(=O)c1sc2nc1CSc1sc(=S)sc1SCc1nc(sc1C(=O)OCC)-c1nc(c(C(=O)OCC)s1)CSc1sc(=S)sc1SCc1nc-2sc1C(=O)OCC
TGI (MDA-MB-231 breast): > 10 µM
TGI (HOP-92 NSCLC): > 10 µM
TGI (HCC-2998 colon): > 10 µM
TGI (LOX IMVI melanoma): > 10 µM
TGI (NCI/ADR-RES ovarian): > 10 µM
TGI (UO-31 renal): > 10 µM
TGI (OVCAR-8 ovarian): > 10 µM
TGI (SK-OV-3 ovarian): > 10 µM
TGI (HCT-116 colon): > 10 µM
TGI (SK-MEL-28 melanoma): > 10 µM
TGI (KM12 colon): > 10 µM
TGI (HCT-15 colon): > 10 µM
TGI (786-0 renal): > 10 µM
TGI (NCI-H460 lung): > 10 µM
TGI (BT-549 breast): > 10 µM
TGI (PC-3 prostate): > 10 µM

CC(=O)Oc1ccc2cc(-c3ccc(OC(C)=O)c(OC(C)=O)c3)c(=O)oc2c1
TGI (MDA-MB-231 breast): > 100 µM
TGI (HOP-92 NSCLC): 95.2 µM
TGI (HCC-2998 colon): > 100 µM
TGI (LOX IMVI melanoma): > 100 µM
TGI (NCI/ADR-RES ovarian): > 100 µM
TGI (UO-31 renal): > 100 µM
TGI (OVCAR-8 ovarian): > 100 µM
TGI (HCT-116 colon): > 100 µM
TGI (SK-MEL-28 melanoma): > 100 µM
TGI (KM12 colon): 61.3 µM
TGI (HCT-15 colon): > 100 µM
TGI (786-0 renal): > 100 µM
TGI (NCI-H460 lung): > 100 µM
TGI (BT-549 breast): > 100 µM
TGI (PC-3 prostate): > 100 µM

CC(C)(C)n1c(=O)n2n(c1=O)C1c3cccc4cccc(c34)C2C2c3cccc4cccc(c34)C1n1c(=O)n(C(C)(C)C)c(=O)n12
TGI (MDA-MB-231 breast): > 100 µM
TGI (HOP-92 NSCLC): > 100 µM
TGI (HCC-2998 colon): > 100 µM
TGI (LOX IMVI melanoma): > 100 µM
TGI (NCI/ADR-RES ovarian): > 100 µM
TGI (UO-31 renal): > 100 µM
TGI (OVCAR-8 ovarian): > 100 µM
TGI (SK-OV-3 ovarian): > 100 µM
TGI (HCT-116 colon): > 100 µM
TGI (SK-MEL-28 melanoma): > 100 µM
TGI (KM12 colon): > 100 µM
TGI (HCT-15 colon): > 100 µM
TGI (786-0 renal): > 100 µM
TGI (NCI-H460 lung): > 100 µM
TGI (BT-549 breast): > 100 µM
TGI (PC-3 prostate): > 100 µM

CC1=CC(=O)N(n2c(Cc3ccc(Cl)cc3)n[nH]c2=O)C1=O
TGI (MDA-MB-231 breast): > 100 µM
TGI (HOP-92 NSCLC): 67.7 µM
TGI (HCC-2998 colon): > 100 µM
TGI (LOX IMVI melanoma): > 100 µM
TGI (NCI/ADR-RES ovarian): > 100 µM
TGI (UO-31 renal): > 100 µM
TGI (OVCAR-8 ovarian): > 100 µM
TGI (SK-OV-3 ovarian): > 100 µM
TGI (HCT-116 colon): > 100 µM
TGI (KM12 colon): > 100 µM
TGI (HCT-15 colon): > 100 µM
TGI (786-0 renal): > 100 µM
TGI (NCI-H460 lung): > 100 µM
TGI (BT-549 breast): > 100 µM
TGI (PC-3 prostate): > 100 µM

O=S(=O)(CCC[C@H]1[C@@H](CCOCc2ccccc2)C2CCCN1O2)c1ccccc1 (some centres undefined)
TGI (MDA-MB-231 breast): > 100 µM
TGI (HOP-92 NSCLC): > 100 µM
TGI (HCC-2998 colon): > 100 µM
TGI (NCI/ADR-RES ovarian): > 100 µM
TGI (UO-31 renal): > 100 µM
TGI (OVCAR-8 ovarian): > 100 µM
TGI (SK-OV-3 ovarian): > 100 µM
TGI (HCT-116 colon): > 100 µM
TGI (SK-MEL-28 melanoma): > 100 µM
TGI (KM12 colon): > 100 µM
TGI (HCT-15 colon): > 100 µM
TGI (786-0 renal): > 100 µM
TGI (NCI-H460 lung): > 100 µM
TGI (BT-549 breast): > 100 µM
TGI (PC-3 prostate): > 100 µM

Cc1cccc(C)c1N=Nc1ccc(O)c(CN(C)C)c1
TGI (MDA-MB-231 breast): > 100 µM
TGI (HOP-92 NSCLC): > 100 µM
TGI (HCC-2998 colon): 48.8 µM
TGI (LOX IMVI melanoma): > 100 µM
TGI (NCI/ADR-RES ovarian): > 100 µM
TGI (UO-31 renal): > 100 µM
TGI (OVCAR-8 ovarian): > 100 µM
TGI (SK-OV-3 ovarian): > 100 µM
TGI (HCT-116 colon): > 100 µM
TGI (SK-MEL-28 melanoma): 60.6 µM
TGI (KM12 colon): > 100 µM
TGI (HCT-15 colon): > 100 µM
TGI (786-0 renal): > 100 µM
TGI (NCI-H460 lung): > 100 µM
TGI (BT-549 breast): > 100 µM
TGI (PC-3 prostate): > 100 µM

CC(C)(C)[Si](C)(C)OCC1OC(n2ccc(=O)[nH]c2=O)C(O[Si](C)(C)C(C)(C)C)[C@]12O[C@@H]2CO (some centres undefined)
TGI (MDA-MB-231 breast): 39.6 µM
TGI (HOP-92 NSCLC): 32.8 µM
TGI (HCC-2998 colon): 81.7 µM
TGI (LOX IMVI melanoma): 40.9 µM
TGI (NCI/ADR-RES ovarian): 44 µM
TGI (UO-31 renal): 21.7 µM
TGI (OVCAR-8 ovarian): > 100 µM
TGI (SK-OV-3 ovarian): 30.5 µM
TGI (HCT-116 colon): 39 µM
TGI (SK-MEL-28 melanoma): 34.6 µM
TGI (KM12 colon): 35 µM
TGI (HCT-15 colon): 31.1 µM
TGI (786-0 renal): 44.6 µM
TGI (NCI-H460 lung): 35.1 µM
TGI (BT-549 breast): 19.4 µM
TGI (PC-3 prostate): 16.8 µM

O=C1C=C(c2ccccc2)O/C1=C\C(=O)c1ccc(Cl)cc1
TGI (MDA-MB-231 breast): 32.7 µM
TGI (HOP-92 NSCLC): 50 µM
TGI (HCC-2998 colon): 87.5 µM
TGI (LOX IMVI melanoma): 30.1 µM
TGI (NCI/ADR-RES ovarian): 52.4 µM
TGI (UO-31 renal): 35.8 µM
TGI (OVCAR-8 ovarian): 83.4 µM
TGI (SK-OV-3 ovarian): > 100 µM
TGI (HCT-116 colon): 31.2 µM
TGI (SK-MEL-28 melanoma): 38.5 µM
TGI (KM12 colon): 80.5 µM
TGI (HCT-15 colon): 35.1 µM
TGI (786-0 renal): 28.8 µM
TGI (NCI-H460 lung): > 100 µM
TGI (BT-549 breast): 25.3 µM
TGI (PC-3 prostate): 30.3 µM
